EPA's ToxValDB 9.5

Test system: Rattus norvegicus
Conditions: short-term, duration: 28 days, oral, gavage, Sprague-Dawley

O=S(=O)(O)C(F)(F)C(F)(F)C(F)(F)C(F)(F)C(F)(F)C(F)(F)C(F)(F)C(F)(F)F [Perfluorooctanesulfonic acid]
LOEL (F, Clinical chemistry_Alanine aminotransferase): 2.5 mg/kg-day
LOEL (F, Clinical chemistry_Albumin): 2.5 mg/kg-day
LOEL (F, Clinical chemistry_Albumin/globulin ratio): 2.5 mg/kg-day
LOEL (F, Clinical chemistry_Alkaline phosphatase): 2.5 mg/kg-day
NOEL (F, Clinical chemistry_Aspartate aminotransferase): 5 mg/kg-day
LOEL (F, Clinical chemistry_Cholesterol): 5 mg/kg-day
LOEL (F, Clinical chemistry_Direct bilirubin): 2.5 mg/kg-day
LOEL (F, Clinical chemistry_Free thyroxine): 0.312 mg/kg-day
NOEL (F, Clinical chemistry_Globulin): 5 mg/kg-day
NOEL (F, Clinical chemistry_Sorbitol dehydrogenase): 5 mg/kg-day
NOEL (F, Clinical chemistry_Testosterone): 5 mg/kg-day
NOEL (F, Clinical chemistry_Thyroid stimulating hormone): 5 mg/kg-day
LOEL (F, Clinical chemistry_Total bile acids): 2.5 mg/kg-day
LOEL (F, Clinical chemistry_Total bilirubin): 5 mg/kg-day
LOEL (F, Clinical chemistry_Total protein): 5 mg/kg-day
LOEL (F, Clinical chemistry_Total thyroxine): 0.312 mg/kg-day
LOEL (F, Clinical chemistry_Total triiodothyronine): 0.625 mg/kg-day
LOEL (F, Clinical chemistry_Triglycerides): 2.5 mg/kg-day
LOEL (F, Gene expression_Acox1): 0.312 mg/kg-day
LOEL (F, Gene expression_Cyp2b1): 0.312 mg/kg-day
LOEL (F, Gene expression_Cyp2b2): 0.312 mg/kg-day
LOEL (F, Gene expression_Cyp4a1): 0.312 mg/kg-day
NOEL (F, Hematology_Erythrocytes): 5 mg/kg-day
NOEL (F, Hematology_Hematocrit): 5 mg/kg-day
NOEL (F, Hematology_Hemoglobin): 5 mg/kg-day
NOEL (F, Hematology_Leukocytes): 5 mg/kg-day
LOEL (F, Hematology_Reticulocytes): 2.5 mg/kg-day
NOEL (F, Hematology_S. neutrophils): 5 mg/kg-day
LOEL (F, Nonneoplastic effects_Bone marrow - Hypocellularity): 2.5 mg/kg-day
NOEL (F, Nonneoplastic effects_Kidney - Papilla, necrosis): 5 mg/kg-day
LOEL (F, Nonneoplastic effects_Liver - Hepatocyte, cytoplasmic alteration): 1.25 mg/kg-day
LOEL (F, Nonneoplastic effects_Liver - Hepatocyte, hypertrophy): 1.25 mg/kg-day
NOEL (F, Nonneoplastic effects_Liver - Hepatocyte, vacuolization cytoplasmic): 5 mg/kg-day
NOEL (F, Nonneoplastic effects_Liver - Necrosis): 5 mg/kg-day
NOEL (F, Nonneoplastic effects_Nose - Olfactory epithelium, degeneration): 5 mg/kg-day
NOEL (F, Nonneoplastic effects_Nose - Olfactory epithelium, hyperplasia): 5 mg/kg-day
NOEL (F, Nonneoplastic effects_Nose - Olfactory epithelium, inflammation, suppurative): 5 mg/kg-day
NOEL (F, Nonneoplastic effects_Nose - Olfactory epithelium, necrosis): 5 mg/kg-day
LOEL (F, Nonneoplastic effects_Spleen - Extramedullary hematopoiesis, decreased): 1.25 mg/kg-day
NOEL (F, Nonneoplastic effects_Stomach, forestomach - Epithelium, hyperplasia): 5 mg/kg-day
NOEL (F, Nonneoplastic effects_Thymus - Atrophy): 5 mg/kg-day
LOEL (F, Organ weights_Heart - Absolute): 5 mg/kg-day
LOEL (F, Organ weights_Heart - Relative): 5 mg/kg-day
LOEL (F, Organ weights_Liver - Absolute): 0.312 mg/kg-day
LOEL (F, Organ weights_Liver - Relative): 0.312 mg/kg-day
NOEL (F, Organ weights_Lung - Absolute): 5 mg/kg-day
LOEL (F, Organ weights_Lung - Relative): 1.25 mg/kg-day
NOEL (F, Organ weights_R. adrenal gland - Absolute): 5 mg/kg-day
NOEL (F, Organ weights_R. adrenal gland - Relative): 5 mg/kg-day
NOEL (F, Organ weights_R. kidney - Absolute): 5 mg/kg-day
NOEL (F, Organ weights_R. kidney - Relative): 5 mg/kg-day
NOEL (F, Organ weights_Spleen - Absolute): 5 mg/kg-day
NOEL (F, Organ weights_Spleen - Relative): 5 mg/kg-day
LOEL (F, Organ weights_Thymus - Absolute): 1.25 mg/kg-day
NOEL (F, Organ weights_Thymus - Relative): 5 mg/kg-day
NOEL (F, Survival rates): 5 mg/kg-day
LOEL (M, Clinical chemistry_Alanine aminotransferase): 0.625 mg/kg-day
LOEL (M, Clinical chemistry_Albumin): 5 mg/kg-day
LOEL (M, Clinical chemistry_Albumin/globulin ratio): 5 mg/kg-day
LOEL (M, Clinical chemistry_Alkaline phosphatase): 0.625 mg/kg-day
LOEL (M, Clinical chemistry_Aspartate aminotransferase): 0.625 mg/kg-day
LOEL (M, Clinical chemistry_Cholesterol): 0.312 mg/kg-day
LOEL (M, Clinical chemistry_Direct bilirubin): 5 mg/kg-day
LOEL (M, Clinical chemistry_Free thyroxine): 0.312 mg/kg-day
LOEL (M, Clinical chemistry_Globulin): 5 mg/kg-day
NOEL (M, Clinical chemistry_Sorbitol dehydrogenase): 5 mg/kg-day
NOEL (M, Clinical chemistry_Testosterone): 5 mg/kg-day
NOEL (M, Clinical chemistry_Thyroid stimulating hormone): 5 mg/kg-day
LOEL (M, Clinical chemistry_Total bile acids): 5 mg/kg-day
